How the values were obtained:
[1] = test system: CPAE cells; assay: Formation of capillary structures in fibrin gel, cell aggregates model; type: cell-based, bovine; details: 5 μg/ml or 10 μg/ml, 3 days of incubation
Protocol: One of the models used the aggregates of CPAE cells according to the method described by Pepper et al., 1991. In brief, 10,000 CPAE were aggregated for 24 hours on 2% agarose on a 96-well plate. Three aggregates collected and incorporated in a fibrin gel: purified fibrinogen (3 mg/ml; Kabi) was dialyzed against MEM medium then mixed with 20% of FCS, 1% of L-glutamine, 1% of penicillin/streptomycin, 2 μM of aprotinin and AMEP at the desired concentration. Human thrombin (1 IU/ml; Sigma) was then added to obtain a fibrin gel to the surface of which was added the complete medium supplemented by aprotinin (2 μM), with this medium being changed every three days. Formation of capillary structures could be observed after 24 hours of culture. These capillaries were photographed under reverse microscope and the size of these structures was measured on the photographs. The statistical analysis (Mann-Whitney method) made it possible to determine whether the size of these structures was different.

[2] = test system: 3T3; assay: Cell proliferation, tritiated thymidine incorporation; type: cell-based; details: 3T3, murine fibroblasts, mean±SEM
Protocol: (§1) The cells were cultured at the rate of 20,000 cells per well (96-well plate, Greiner) in the complete medium. After 24 h, the cells were cultured in a medium containing a concentration lower by half than that corresponding to the complete medium to induce the cell in phase G0/G1 of proliferation for 24 supplementary hours. The cells were then cultured for 30 h with complete medium in the presence or without the presence of AMEP. Tritiated thymidine (1 μCi per well) was then added to the cells and incubated for 18 hours. Incorporation of the tritiated thymidine by the cells was quantified by filter paper according to the protocol described for the use of a Skatron (Skatron, Lier, Norway). Radioactivity was then determined by counting after addition of scintillation liquid. The results were expressed as a percentage in relation to the control.

[3] = test system: CPAE cells (calf pulmonary artery endothelial cells); assay: Adhesion of CPAE endothelial cells to fibrinogen, vitronectin and fibronectin; type: cell-based, bovine
Protocol: First technique: punctual incubation of the endothelial cells with AMEP during the test.
The CPAE were detached from the culture plates by incubation with 1.5 mM EDTA and resuspended at the rate of 5×10^5 cells/ml in the adhesion buffer (140 mM NaCl, 10 mM Hepes, 5 mM glucose, 5.4 mM KCl, 2 mM CaCl2, 1 mM MgCl2, 1 mM MnCl2, pH 7.4). […] Dutcher) that had been incubated in advance for one night at 4° C. with 50 μl of purified fibrinogen (40 μg/ml in PBS; Kabi), 10 μg/ml of vitronectin (Sigma); 30 μg/ml of fibronectin (Sigma) and 1% of BSA (bovine serum albumin) as negative control. After 20 minutes of incubation of the CPAE cells at 37° C., the plate was washed twice with 200 μl of adhesion buffer and the nonspecific sites were saturated with PBS supplemented with 1% of BSA for 1 hour at 37° C. The plate was then washed again twice with the adhesion buffer containing 1% of BSA. The nonadherent cells were eliminated by washing the wells three times with 200 μl of adhesion buffer plus 1% of BSA. Measurement of the phosphatase activity of the cells enabled quantification of the adherent cells. In brief, 100 μl of paranitrophenol phosphate (Sigma) at 3 mg/ml in the acetate buffer pH containing 0.1% of X100 Triton was added to the wells and incubated for 2 h at 37° C. The reaction was stopped by the addition of 1N NaOH. The release of paranitrophenol, which indicates the number of adherent cells, was measured after reading of the absorbance at 405 nm with an ELISA reader (Titertek Twinreader). […] The remainder of the protocol was identical to the that described above with the exception that no additional incubation of the cells with AMEP was performed.

[4] = test system: CPAE cells; assay: Model of endothelial cell migration (agarose, 24-well plates); type: cell-based, bovine
Protocol: The migration model was implemented in 24-well plates. 1.5% agarose was dissolved in the culture medium to form a gel in the wells. Half of an agarose cylinder was then inserted in a well. The CPAE cells were added to the free space left in the well and cultured until their confluence. The piece of agarose was then removed to allow the cells to migrate and AMEP was added, at the desired concentrations, to the culture medium. Then, a transparent graph paper was placed under the plate to determine the migration rate of the cells using an ocular micrometer under reverse microscope. The experiments were performed in duplicate and repeated three times. The results were expressed in percentage in relation to the control.

[5] = test system: B16F10; assay: Cell proliferation, tritiated thymidine incorporation; type: cell-based, murine; details: B16F10 cancer cells, mean±SEM
Protocol: as §1

[6] = test system: B16F10 cells; assay: Syngenic metastatic tumor model (pulmonary metastases); type: in vivo; details: C57B1/6 mice, B16F10 i.v.; AMEP expressed in muscle, doxycycline induction; after 7 days of treatment
Source text: The cDNA of AMEP was subcloned at the Eco RV site of the vector pBi (Clonetech, Palo Alto, Calif., USA). The expression of the gene of interest in this vector was under the dependence of a promoter responding to tetracycline in an expression system involving the eukaryote gene Tet-On. The Tet-On vector expresses the transactivator rtTA (reverse tetracycline transcriptional activator) and the vector Tet-tTS expresses the silencer tTS (tetracycline transcriptional silencer). The purifications of the plasmids were performed in a manner such that no endotoxin was present (Maxi endo free Kit, Quiagen). The purified plasmid DNA was dissolved in endotoxin-free sterile 0.9% NaCl at the desired concentration.
20 μg of plasmid pBi-AMEP, 10 μg of plasmid Tet-off and 20 μg of plasmid Tet-on were dissolved in 30 μl of sterile 0.9% NaCl and injected into the tibia cranial muscle of nude or C57B1/6 mice aged 8 weeks and previously anesthetized by intraperitoneal inoculation of pentobarbital as described by Mir et al. (Mir et al., 1999). In brief, 8 electric shocks of 200 V/cm were applied for 20 ms at a frequency of 1 Hz, by means of an electrode to the mouse paw and containing two steel plates. The electrode was connected to an electropulsator PS-15 (Jouan, St Herblain, France). The same plasmids not containing the AMEP gene constituted the negative control. […]

[7] = cells incubated punctually for 30 minutes prior to adhesion test, 1.4-kDa peptide 1 μg/ml, AMEP 10 μg/ml (comparable molar concentration)
[8] = cells preincubated for 24 h, same molar concentration (AMEP 10 μg/ml, 1.4-kDa peptide 1 μg/ml)

AMEP: disintegrin domain of human metargidin (Met-420 to Glu-511, SEQ ID NO. 2), 91 amino acids, 9.7 kDa; recombinant or expressed in vivo by gene electrotransfer
effect on capillary structures [1]: disorganization of capillary structures
% inhibition of cell proliferation by AMEP (5 μg/ml) [2]: 9.1 ± 2.2%
inhibition of adhesion of endothelial cells on fibrinogen [3, 7]: no significant effect
inhibition of adhesion of endothelial cells on vitronectin [3, 7]: no significant effect
inhibition of adhesion of endothelial cells on fibrinogen [3, 8]: 30%
inhibition of adhesion of endothelial cells on fibronectin [3, 8]: 30%
inhibition of adhesion of endothelial cells on vitronectin [3, 8]: 30%
number of dead endothelial cells (floating in the culture medium) ([4]; 10 μg/ml, phase-contrast microscope (FIG. 3)): augmentation of the number of dead endothelial cells
inhibition of cell migration ([4]; CPAE, 10 μg/ml): complete inhibition
effect on the displacement rate of the cells ([4]; CPAE, 2-10 μg/ml): dose dependent
% inhibition of cell proliferation by AMEP (5 μg/ml) [5]: 74.3 ± 7.0%
inhibition of the number of pulmonary metastases [6]: 74.2%
